Like-named read-outs stand apart in the source and are kept apart here.
How the values were obtained:
[1] = test system: BALB/c mice; settings: for overall toxicity conclusion: acute toxicity study in mice; for 7-Day Survival Males: male mice; for observations in treated animals: mice
[2] = test system: spleen cells; assay: Immunogenicity study with rHA: lymphoproliferation of restimulated spleen cells (3H-TdR incorporation); assay type: in vivo, BALB/c mice; settings: mice immunized with compound 100 μg + rHA 5 μg; for Lymphoproliferation Con A: restimulated with concanavalin A 4 days; for Lymphoproliferation Medium: restimulated with medium (background) 4 days; for Lymphoproliferation rHA: restimulated with rHA 4 days
[3] = test system: recombinant hemagglutinin antigen (rHA) of influenza A; assay type: in vivo; settings: compound 100 μg + rHA 5 μg; for Anti-rHA Titer IgG1 / Anti-rHA Titer IgG2a / Anti-rHA Titer IgG2b: s.c. Days 1 and 22, serum Day 43; for Anti-rHA Titer Total IgG: s.c. Days 1 and 22, serum Day 43, BALB/c mice
[4] = test system: humans; settings: in humans; cited from earlier work
[5] = single s.c. dose 250 μg, female mice
[6] = single s.c. dose 500 μg, female mice
[7] = single s.c. dose 1 mg, female mice
[8] = single s.c. dose 2 mg, female mice
[9] = single s.c. dose 4 mg in DMSO, female mice

Compound	overall toxicity conclusion [1]	7-Day Survival Females [1, 5]	7-Day Survival Males ([1]; single s.c. dose 250 μg)	7-Day Survival Females [1, 6]	7-Day Survival Males ([1]; single s.c. dose 500 μg)	7-Day Survival Females [1, 7]	7-Day Survival Males ([1]; single s.c. dose 1 mg)	7-Day Survival Females [1, 8]	7-Day Survival Males ([1]; single s.c. dose 2 mg)	7-Day Survival Females [1, 9]	7-Day Survival Males ([1]; single s.c. dose 4 mg in DMSO)	observations in treated animals ([1]; single s.c. injection)	Lymphoproliferation Con A [2]	Lymphoproliferation Medium [2]	Lymphoproliferation rHA [2]	Anti-rHA Titer IgG1 [3]	Anti-rHA Titer IgG2a [3]	Anti-rHA Titer IgG2b [3]	Anti-rHA Titer Total IgG [3]	other results
CCCCCCCCCCCCNC(=O)C12CCC(C)(C)CC1C1=CCC3C4(C)CCC(O)C(C)(C=O)C4CCC3(C)C1(C)CC2 (stereo not shown) [Dodecyl genin, dodecylamide derivative of gypsogenin]	general lack of toxicity	100%	100%	100%	100%	100%	100%	100%	100%	100%	100%	lethargy, hair loss, and skin irritation at the injection site	278,393	772	30,402	20,984	6600	1466	3418	
CC1(C)CC[C@]2(C(=O)O)CC[C@]3(C)C(=CC[C@@H]4[C@@]5(C)CC[C@H](O)[C@@](C)(C=O)[C@@H]5CC[C@]43C)[C@@H]2C1 [Gypsogenin, gypsogenin, reference compound]	general lack of toxicity	100%	100%	100%	100%	100%	100%	100%	100%	100%	100%	lethargy, hair loss, and skin irritation at the injection site	321,750	356	8507	3220	348	1118	1136	stability on storage (TLC, purity checked periodically) (kept in cold (below −4° C.), 1 year): no change was observed; stability on storage (TLC) (room temperature storage): decomposition was seen
CCCCCCCCCCCCNC(=O)[C@]12CCC(C)(C)C[C@H]1C1=CCC3[C@@]4(C)CC[C@H](OC5OC(CO)C(O)C(O)C5O)[C@@](C)(C=O)C4CC[C@@]3(C)[C@]1(C)CC2 (stereo partly shown) [Saponin 1]	general lack of toxicity	100%	100%	100%	100%	100%	100%	80%	100%	80%	100%	lethargy, hair loss, and skin irritation at the injection site	232,769	268	3696	29,100	446	2008	5130	maximum tolerated dose (MTD) for females ([1]; single s.c. injection, female mice): 1 mg
QS-21																				dose associated with significant local reactions [4]: ≥ 200 µg
